Results published in patent US10351577B2, “Ether analogues of galiellalactone” (Glactone Pharma Development AB, priority 2015, dated 2019).

How the values were obtained:
DU145 [1] = assay: WST-1 cell proliferation assay on DU145; format: cell-based; details: for activity at 10 µM: Homo sapiens, DU-145, 72 h, percent of untreated control cells, read-out: Remaining cell proliferation (%) DU145; for Difference in cell proliferation @ 10 μM (%) (Selectivity) Δ LNCaP − DU145: LNCaP minus DU145
Description: (§1) The functional activity of the example compounds in comparison to galiellalactone was evaluated using a WST-1 proliferation assay (J. Biol. Chem. 2014, 289:15969-15978) on DU145, LNCaP or IL-6 stimulated LNCaP.
(§2) The cells were cultured in 96-well plates (2000 cells/well in 200 μl of medium) and allowed to set for 24 h. The cells were treated with 10 μM of an example compound or galiellalactone for 72 h. Samples were made in triplicate. 20 μl WST-1 solution (Roche Applied Science) was added per well and incubated at 37° C. for 4 h. The absorbance of each well was measured using a scanning multi-well spectrophotometer, ELISA reader at a wavelength of 450 nm and reference wavelength of 690 nm. The results presented in Tables 2 and 3 below are presented as percent of untreated control cells.

LNCaP = assay: WST-1 cell proliferation assay on LNCaP; format: cell-based; details: Homo sapiens, 72 h, percent of untreated control cells, read-out: Remaining cell proliferation (%) LNCaP
Description: as §1, §2

LNCaP-IL6 [2] = assay: WST-1 cell proliferation assay on IL-6 stimulated LNCaP; format: cell-based; details: for activity at 10 µM: Homo sapiens, LNCaP, 72 h, percent of untreated control cells, read-out: Remaining cell proliferation (%) LNCaP-IL6; for Difference in cell proliferation @ 10 μM (%) (Selectivity) Δ LNCaP − LNCaPIL6: LNCaP minus LNCaP-IL6
Description: as §1, §2

STAT1 = STAT1 luciferase reporter gene assay in HeLa cells stimulated with IFNg; format: cell-based; details: Homo sapiens, M-HeLa, IFNg overnight
Description: In order to further asses the properties of the ether analogues of galiellalactone, the STAT1 activity was determined for some of the novel analogues.

DU145 [3] = assay: WST-1 cell proliferation assay on DU145; format: cell-based; details: for IC50: Homo sapiens, DU-145, dose response study, DU145
LNCaP-IL6 [4] = assay: WST-1 cell proliferation assay on IL-6 stimulated LNCaP; format: cell-based; details: Homo sapiens, dose response study
[5] = Comparative pharmacokinetic study, single oral dose, plasma by LC-MS/MS; format: in vivo; details: mouse, CD1 mice, single oral gavage 10 mg/kg
Description: A pharmacokinetic study was performed in CD1 mice to establish plasma exposure following administration of single oral doses of galiellalactone and example 20. Sample analysis was by LC-MS/MS.
Dose solutions were prepared at a drug concentration of 0.5 mg/mL in 5% DMSO in 50 mM citrate buffer (citric acid/sodium citrate pH 4.0) and administered as a 20 mL/kg oral gavage (10 mg/kg).
AUC denotes the plasma exposure of the compound measured with time. More specifically, AUC 0-t is the area under the plasma drug concentration/time curve from 0 minutes to last quantifiable data point. AUC 0-∞ is the area under the plasma drug concentration/time curve from 0 minutes extrapolated to infinity.

IL-6/STAT3 signaling = details: cited from earlier work

Selectivity at IC90 against DU145 and LNCaP-IL6 cell proliferation over LNCaP proliferation (DU145 [3]; FIG. 1B dose response curves)	IC50 (DU145 [3]) [µM]	IC50 (LNCaP-IL6 [4]) [µM]	AUC(0-t) ([5]; 0 min to last quantifiable data point) [ng·h/mL]	AUC(0-inf) ([5]; extrapolated to infinity) [ng·h/mL]	half-life ([5]; read-out: Apparent half-life (converted)) [h]	SMILES	activity at 10 µM (DU145 [1]) [%]	Difference in cell proliferation @ 10 μM (%) (Selectivity) Δ LNCaP − DU145 (DU145 [1])	activity at 10 µM (LNCaP) [%]	activity at 10 µM (LNCaP-IL6 [2]) [%]	Difference in cell proliferation @ 10 μM (%) (Selectivity) Δ LNCaP − LNCaPIL6 (LNCaP-IL6 [2])	inhibition at 10 µM (STAT1) [%]	Inhibition of IL-6/STAT3 signaling (IL-6/STAT3 signaling)
–	–	–	–	–	–	Cc1ccc(COC23C4=CC(C)CC2CCC3OC4=O)cn1 (stereo in doubt) [Example 1, (4R,5aS,7aS,7bR)-5,5a,6,7,7a,7b-hexahydro-7b-[(6-methyl-3-pyridinyl)methoxy]-4-methyl-indeno[1,7-bc]furan-2(4H)-one]	12.9	50.3	63.2	8.6	54.6	14	–
–	–	–	–	–	–	CC1C=C2C(=O)OC3CCC(C1)C23OCc1ccc(Oc2ccccc2)nc1 (stereo in doubt) [Example 2, (4R,5aS,7aS,7bR)-5,5a,6,7,7a,7b-hexahydro-7b-[(6-phenoxy-3-pyridinyl)methoxy]-4-methyl-indeno[1,7-bc]furan-2(4H)-one]	36.1	49.9	86	18	68	1	–
–	–	–	–	–	–	CC1C=C2C(=O)OC3CCC(C1)C23OCCc1cccnc1 (stereo in doubt) [Example 3, (4R,5aS,7aS,7bR)-5,5a,6,7,7a,7b-hexahydro-7b-[2-(3-pyridinyl)-ethoxy]-4-methyl-indeno[1,7-bc]furan-2(4H)-one]	18.7	49.9	68.6	8	60.6	38	–
–	–	–	–	–	–	Cc1cnc(COC23C4=CC(C)CC2CCC3OC4=O)cn1 (stereo in doubt) [Example 4, (4R,5aS,7aS,7bR)-5,5a,6,7,7a,7b-hexahydro-7b-[(5-methyl-2-pyrazinyl)methoxy]-4-methyl-indeno[1,7-bc]furan-2(4H)-one]	11.4	44.1	55.5	10.7	44.8	12	–
–	–	–	–	–	–	COc1ccnc(COC23C4=CC(C)CC2CCC3OC4=O)c1 (stereo in doubt) [Example 5, (4R,5aS,7aS,7bR)-5,5a,6,7,7a,7b-hexahydro-7b-[(4-methoxy-2-pyridinyl)methoxy]-4-methyl-indeno[1,7-bc]furan-2(4H)-one]	19	67	86	15	71	16	–
–	–	–	–	–	–	COC(=O)c1cccc(COC23C4=CC(C)CC2CCC3OC4=O)n1 (stereo in doubt) [Example 6, (4R,5aS,7aS,7bR)-5,5a,6,7,7a,7b-hexahydro-7b-[(6-methoxycarbonyl-2-pyridinyl)methoxy]-4-methyl-indeno[1,7-bc]furan-2(4H)-one]	16.6	49	65.6	15.9	49.7	–	–
–	–	–	–	–	–	COc1ncccc1COC12C3=CC(C)CC1CCC2OC3=O (stereo in doubt) [Example 7, (4R,5aS,7aS,7bR)-5,5a,6,7,7a,7b-hexahydro-7b-[(2-methoxy-3-pyridinyl)methoxy]-4-methyl-indeno[1,7-bc]furan-2(4H)-one]	16.7	42.6	59.3	7	52.3	–	–
–	–	–	–	–	–	Cc1ncccc1COC12C3=CC(C)CC1CCC2OC3=O (stereo in doubt) [Example 8, (4R,5aS,7aS,7bR)-5,5a,6,7,7a,7b-hexahydro-7b-[(2-methyl-3-pyridinyl)methoxy]-4-methyl-indeno[1,7-bc]furan-2(4H)-one]	10	44.5	54.5	3	51.5	–	–
very good selectivity	1.53	1.06	–	–	–	Cc1ccc(COC23C4=CC(C)(F)CC2CCC3OC4=O)cn1 (stereo in doubt) [Example 26, (4R,5aS,7aS,7bR)-5,5a,6,7,7a,7b-hexahydro-7b-[(6-methyl-3-pyridinyl)methoxy]-4-fluoro-4-methyl-indeno[1,7-bc]furan-2(4H)-one]	–	–	–	–	–	–	–
–	–	–	–	–	–	C[C@@H]1C=C2C(=O)O[C@@H]3CCC(C1)[C@]23OCc1ccc(NC(=O)C(C)(C)C)nc1 (stereo partly drawn) [Example 9, (4R,5aS,7aS,7bR)-5,5a,6,7,7a,7b-hexahydro-7b-[(6-[(2,2-dimethyl-1-oxopropyl)amino]-3-pyridinyl]methoxy]-4-methyl-indeno[1,7-b]c furan-2(4H)-one]	9.7	57.9	67.6	2.8	64.8	–	–
–	–	–	–	–	–	C[C@@H]1C=C2C(=O)O[C@@H]3CCC(C1)[C@]23OCc1ccc(N2CCOCC2)nc1 (stereo partly drawn) [Example 15, (4R,5aS,7aS,7bR)-5,5a,6,7,7a,7b-hexahydro-7b-[(6-(N-morpholino)-3-pyridinyl)methoxy]-4-methyl-indeno[1,7-bc]furan-2(4H)-one]	9.6	66.6	76.1	6.5	69.6	53	–
–	2.52	1.16	82	87	1.2	C[C@@H]1C=C2C(=O)O[C@@H]3CC[C@H](C1)[C@]23O [Galiellalactone, (−)-Galiellalactone]	10.8	32.8	43.6	4.7	38.9	62	submicromolar
